{
  "source": "ChEMBL document CHEMBL1132333",
  "about": "“Synthesis and enantiomeric separation of 2-phthalimidino-glutaric acid analogues: potent inhibitors of tumor metastasis” (1999)",
  "tested_on": "Mus musculus",
  "experiment": "Compound (0.4 mmol/Kg) was evaluated for its ability to inhibit B16BL6 pulmonary metastasis in mice. The number of lung metastases of treated (T) and nontreated or control (C) is expressed as ratio, T/C.",
  "type": "functional",
  "data": [
    {"smiles": "CC(CCC(=O)O)(C(=O)O)N1Cc2ccccc2C1=O", "note": "(configuration not stated)", "values": [
      {"measurement": "T/C", "value": 0.25}
    ]},
    {"smiles": "C[C@@](CCC(=O)O)(C(=O)O)N1Cc2ccccc2C1=O", "values": [
      {"measurement": "T/C", "value": 0.7}
    ]},
    {"smiles": "O=C(O)CCC(C(=O)O)N1Cc2ccc(O)cc2C1=O", "note": "(configuration not stated)", "values": [
      {"measurement": "T/C", "value": 0.9}
    ]},
    {"smiles": "O=C(O)CCC(C(=O)O)N1Cc2ccccc2C1=O", "note": "(configuration not stated)", "values": [
      {"measurement": "T/C", "value": 0.2}
    ]},
    {"smiles": "O=C(O)CCC(C(=O)O)N1Cc2cccc(O)c2C1=O", "note": "(configuration not stated)", "values": [
      {"measurement": "T/C", "value": 0.95}
    ]},
    {"smiles": "C[C@](CCC(=O)O)(C(=O)O)N1Cc2ccccc2C1=O", "values": [
      {"measurement": "T/C", "value": 0.15}
    ]},
    {"smiles": "O=C1CCC(N2C(=O)c3ccccc3C2=O)C(=O)N1", "note": "(configuration not stated) [THALIDOMIDE]", "values": [
      {"measurement": "T/C", "value": 0.9}
    ]}
  ]
}
